Among the data in patent US9115092B2, “Substituted quinazoline and pyrido-pyrimidine derivatives” (Asana Biosciences, LLC, priority 2010, dated 2015) are IC50 values, retold here.

The target in one test is T1, mTOR kinase (Homo sapiens, UniProt P42345).
T1 construct: purchased Millipore, USA
Nature of the test: mTOR kinase TR-FRET assay. Type of test: biochemical. The following applies: read-out: mTO R. The method in brief: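 Compounds preincubated 60 min with mTOR (5 ng) in HEPES pH 7.5, EGTA, MnCl2; ULight-p70 S6K Thr389 peptide (50 nM) and ATP (20 μM) then added, 60 min at room temperature. EDTA-stopped, Eu-anti-phospho antibody detection by TR-FRET (665/615 nm); IC50 from variable-slope sigmoidal fit.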

In test [1] the test system is pAKT(T308) (phosphorylated at threonine 308), PC3 cells. Nature of the test: In-cell Western assay, pAKT(T308) in PC3 cells. Type of test: cell-based. The following applies: Homo sapiens, PC-3, In-cell Western. As for the experimental part: (§1) Cells from human prostate cancer cell line PC3 (American Type Culture Collection (ATCC), Manassas, Va. 20108 USA) were seeded at an optimal density of 22,000 cell/well in 96-well plates containing Ham's F12K medium (90 μL) and incubated overnight. The compound dilutions were carried out in 100% DMSO followed by a dilution in the medium. Test compounds were added in serial dilutions to the wells and incubated for 2 h. The cells were washed and fixed with 4% paraformaldehyde. After incubation at room temperature for 1 h in the dark, blocking was done for 2 h at room temperature. Primary antibodies for phosphorylated (p) AKT(5473) (phosphorylated at serine 473), pAKT(T308) (phosphorylated at threonine 308) and for pS6RP(S235/236) (phosphorylated at serine 235/236) (commercially available from Cell Signaling Technology®, whose protocol was followed for the in-cell western assay, were diluted to the required concentration and added to the corresponding wells followed by overnight incubation at 4° C. Eu-labeled rabbit (PE) (Perkin-Elmer USA catalog #AD0106) secondary antibody was added and incubated for 2 h at room temperature. Delfia® enhancement solution (cat #1244-105, Perkin Elmer USA) was subsequently added to the plate before taking the reading at 615 nm with excitation wavelength of 340 nm, after which 0.5 μg/mL of Hoechst® 33258 dye (Catalog #86140-5, Sigma) was added to the plate and fluorescence emission was read at 460 nm with 355 nm excitation, to evaluate the correction factor. IC50 values were calculated using a sigmoidal dose-response curve fit in GraphPad Prism® v5 software.

Test [2] concerns pS6RP(S235/236), PC3 cells. The test is described as follows: In-cell Western assay, pS6RP(S235/236) in PC3 cells. Type of test: cell-based, human. The following applies: Homo sapiens, PC-3, In-cell Western. In a few lines: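 Overnight-seeded PC3 cells were treated 2 h with serially diluted compound, then fixed and immunostained with phospho-specific primary antibodies and Eu-labelled secondary. Time-resolved Eu signal read at 615 nm (ex 340 nm), normalised by Hoechst 33258 staining (ex 355/em 460 nm); IC50 from sigmoidal dose-response fit.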

The target of test [3] is T2, PI3Kα (wild-type), P110/P85α (Homo sapiens, UniProt P42336).
T2 construct: made in house; host or cells: SF9 insect cells
T2 sequence (P42336 whole entry): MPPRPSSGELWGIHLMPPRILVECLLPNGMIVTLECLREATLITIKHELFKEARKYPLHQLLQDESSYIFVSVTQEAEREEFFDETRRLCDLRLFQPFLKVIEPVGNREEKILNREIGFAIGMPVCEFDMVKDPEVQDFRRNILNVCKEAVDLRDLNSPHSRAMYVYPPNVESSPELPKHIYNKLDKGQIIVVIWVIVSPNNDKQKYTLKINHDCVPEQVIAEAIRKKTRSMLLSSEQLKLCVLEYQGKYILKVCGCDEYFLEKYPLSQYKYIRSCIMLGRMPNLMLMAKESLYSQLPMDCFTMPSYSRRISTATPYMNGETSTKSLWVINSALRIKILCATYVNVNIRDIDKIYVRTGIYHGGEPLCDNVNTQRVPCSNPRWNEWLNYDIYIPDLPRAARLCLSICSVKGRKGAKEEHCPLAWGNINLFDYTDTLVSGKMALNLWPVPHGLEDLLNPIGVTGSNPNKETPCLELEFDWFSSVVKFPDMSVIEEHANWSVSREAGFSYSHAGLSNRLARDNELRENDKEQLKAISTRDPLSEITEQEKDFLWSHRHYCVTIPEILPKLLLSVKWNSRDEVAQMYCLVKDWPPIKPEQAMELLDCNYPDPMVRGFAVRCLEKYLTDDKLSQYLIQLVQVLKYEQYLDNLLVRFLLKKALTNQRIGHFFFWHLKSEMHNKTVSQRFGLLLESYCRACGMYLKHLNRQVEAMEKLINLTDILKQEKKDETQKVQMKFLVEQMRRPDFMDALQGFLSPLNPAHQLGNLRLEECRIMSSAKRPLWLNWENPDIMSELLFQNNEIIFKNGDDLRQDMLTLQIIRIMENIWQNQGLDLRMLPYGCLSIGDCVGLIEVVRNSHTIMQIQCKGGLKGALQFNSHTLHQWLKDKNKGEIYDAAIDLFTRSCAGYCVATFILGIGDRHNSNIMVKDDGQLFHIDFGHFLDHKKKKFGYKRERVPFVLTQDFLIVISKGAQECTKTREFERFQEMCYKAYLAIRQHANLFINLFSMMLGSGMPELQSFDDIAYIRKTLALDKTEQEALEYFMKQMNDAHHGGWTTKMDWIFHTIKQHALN
T2 sequence (P27986 whole entry partner): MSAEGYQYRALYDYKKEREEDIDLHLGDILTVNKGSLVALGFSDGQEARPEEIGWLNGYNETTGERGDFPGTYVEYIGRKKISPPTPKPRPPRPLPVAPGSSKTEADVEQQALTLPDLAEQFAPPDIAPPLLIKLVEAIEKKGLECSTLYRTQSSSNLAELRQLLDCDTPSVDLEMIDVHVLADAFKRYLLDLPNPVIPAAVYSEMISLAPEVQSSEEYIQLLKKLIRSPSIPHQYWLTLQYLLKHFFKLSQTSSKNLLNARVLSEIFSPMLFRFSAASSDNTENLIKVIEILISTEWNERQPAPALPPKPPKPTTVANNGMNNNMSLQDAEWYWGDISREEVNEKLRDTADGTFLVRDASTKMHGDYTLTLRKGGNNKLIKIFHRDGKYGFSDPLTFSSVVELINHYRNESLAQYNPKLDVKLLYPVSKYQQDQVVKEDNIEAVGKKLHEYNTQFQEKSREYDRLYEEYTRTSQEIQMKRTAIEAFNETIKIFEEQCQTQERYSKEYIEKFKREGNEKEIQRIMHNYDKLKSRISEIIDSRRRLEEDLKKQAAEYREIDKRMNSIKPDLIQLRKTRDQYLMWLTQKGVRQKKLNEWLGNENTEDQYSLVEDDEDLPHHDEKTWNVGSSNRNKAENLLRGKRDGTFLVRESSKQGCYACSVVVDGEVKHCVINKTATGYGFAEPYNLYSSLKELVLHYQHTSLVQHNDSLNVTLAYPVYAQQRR
Nature of the test: PI3 Kinase TR-FRET assay, PI3Kα (wild-type). Type of test: biochemical. In a few lines: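 Sf9-expressed His-purified P110/P85α (5 ng) preincubated 60 min RT with compound and PIP2 in buffer with 40 mM MgCl2, 5 mM DTT; reaction started with ATP (PIP2 and ATP both 10 μM), 30 min RT. PIP3 detected by TR-FRET displacement, 665/615 nm ratio; IC50 from dose-response curves.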

The subject of another test is PC3 cells. The test is described as follows: XTT assay for cell viability, PC3 cells. Type of test: cell-based, human. Conditions: Homo sapiens, PC-3, cell viability. The method in brief:
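PC3 cells seeded at 1000 cells/well, grown 24 h, then exposed to serial dilutions of compound for 96 h. Viability read by XTT dye at 37° C, absorbance 465 nm. EC50 from sigmoidal dose-response fit.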

In test [4] the test system is pAKT(5473) (phosphorylated at serine 473), PC3 cells. Nature of the test: In-cell Western assay, pAKT(5473) in PC3 cells. Type of test: cell-based. The following applies: Homo sapiens, PC-3, In-cell Western, read-out: pAkt-S473. As for the experimental part: as §1

Turning to `CN(C)C(=O)c1ccc(NC(=O)Nc2ccc(-c3nc(N4CCOCC4)c4ccc(-c5cccc(S(C)(=O)=O)c5)cc4n3)cc2)cc1` [Example 19, 4-(3-{4-[7-(3-methanesulfonyl-phenyl)-4-morpholin-4-yl-quinazolin-2-yl]-phenyl}-ureido)-N,N-dimethyl-benzamide], the IC50 at mTOR kinase is less than 50 nM; in test [1], 100 to 500 nM; in test [2], less than 100 nM; in test [3] it was less than 50 nM; in the test with PC3 cells, less than 100 nM; in test [4], 100 to 500 nM.

Consider `CNC(=O)c1ccc(NC(=O)Nc2ccc(-c3nc(N4CCOCC4)c4ccc(-c5cccc(S(C)(=O)=O)c5)cc4n3)cc2)cc1` [Example 20, 4-(3-{4-[7-(3-methanesulfonyl-phenyl)-4-morpholin-4-yl-quinazolin-2-yl]-phenyl}-ureido)-N-methyl-benzamide], for which the IC50 on mTOR kinase is less than 50 nM; in test [1] it was 100 to 500 nM; in test [2], 100 to 500 nM; in test [3], less than 50 nM; with PC3 cells, 100 to 500 nM; in test [4] it was 100 to 500 nM.

Take `CN(C)C(=O)c1ccc(NC(=O)Nc2ccc(-c3nc(N4CCOCC4)c4ccc(-c5cnn(C)c5)cc4n3)cc2)cc1` [Example 22, N,N-dimethyl-4-(3-{4-[7-(1-methyl-1H-pyrazol-4-yl)-4-morpholin-4-yl-quinazolin-2-yl]-phenyl}-ureido)-benzamide]: the IC50 is less than 50 nM on mTOR kinase; 100 to 500 nM in test [1]; less than 100 nM in test [2]; less than 50 nM in test [3]; less than 100 nM with PC3 cells; 100 to 500 nM in test [4].

In the case of `CN(C)C(=O)c1ccc(NC(=O)Nc2ccc(-c3nc(N4CCOCC4)c4ccc(-c5cccnc5)cc4n3)cc2)cc1` [Example 24, N,N-dimethyl-4-{3-[4-(4-morpholin-4-yl-7-pyridin-3-yl-quinazolin-2-yl)-phenyl]-ureido}-benzamide], the IC50 was less than 50 nM on mTOR kinase; 100 to 500 nM in test [1]; less than 100 nM in test [2]; less than 50 nM in test [3]; less than 100 nM with PC3 cells; 100 to 500 nM in test [4].

In the case of `CN1CCN(C(=O)c2ccc(NC(=O)Nc3ccc(-c4nc(N5CCOCC5)c5ccc(-c6cccnc6)cc5n4)cc3)cc2)CC1` [Example 33, 1-[4-(4-methyl-piperazine-1-carbonyl)-phenyl]-3-[4-(4-morpholin-4-yl-7-pyridin-3-yl-quinazolin-2-yl)-phenyl]-urea], the IC50 on mTOR kinase is less than 50 nM; in test [1], 100 to 500 nM; in test [2] it was less than 100 nM; in test [3], less than 50 nM; in the test with PC3 cells, less than 100 nM; in test [4] it was 100 to 500 nM.

Consider `CN(C)C(=O)c1ccc(NC(=O)Nc2ccc(-c3nc(N4CCOCC4)c4cc(F)c(-c5cnn(C)c5)cc4n3)cc2)cc1` [Example 35, 4-(3-{4-[6-Fluoro-7-(1-methyl-1H-pyrazol-4-yl)-4-morpholin-4-yl-quinazolin-2-yl]-phenyl}-ureido)-N,N-dimethyl-benzamide], for which the IC50 at mTOR kinase was less than 50 nM; in test [1] it was 100 to 500 nM; in test [2], less than 100 nM; in test [3] it was less than 50 nM; in the test with PC3 cells, less than 100 nM; in test [4] it was 100 to 500 nM.

Take `CN(C)C(=O)c1ccc(NC(=O)Nc2ccc(-c3nc(N4CCOCC4)c4ncc(-c5cnn(C)c5)cc4n3)cc2)cc1` [Example 42, N,N-dimethyl-4-(3-{4-[7-(1-methyl-1H-pyrazol-4-yl)-4-morpholin-4-yl-pyrido[3,2-d]pyrimidin-2-yl]-phenyl}-ureido)-benzamide]: the IC50 is less than 50 nM at mTOR kinase; 100 to 500 nM in test [1]; 100 to 500 nM in test [2]; less than 50 nM in test [3]; less than 100 nM with PC3 cells; less than 100 nM in test [4].

Regarding `CN(C)CCN(C)C(=O)c1ccc(NC(=O)Nc2ccc(-c3nc(N4CCOCC4)c4ccc(-c5cncnc5)cc4n3)cc2)cc1` [Example 44, N-(2-dimethylamino-ethyl)-N-methyl-4-{3-[4-(4-morpholin-4-yl-7-pyrimidin-5-yl-quinazolin-2-yl)-phenyl]-ureido}-benzamide], the IC50 is less than 50 nM on mTOR kinase; less than 100 nM in test [1]; less than 100 nM in test [2]; less than 50 nM in test [3]; less than 100 nM in the test with PC3 cells; less than 100 nM in test [4].

In the case of `CN(C)C(=O)c1ccc(NC(=O)Nc2ccc(-c3nc(N4CCOCC4)c4ncc(-c5cccnc5)cc4n3)cc2)cc1` [Example 46, N,N-dimethyl-4-{3-[4-(4-morpholin-4-yl-7-pyridin-3-yl-pyrido[3,2-d]pyrimidin-2-yl)-phenyl]-ureido}-benzamide], the IC50 on mTOR kinase was less than 50 nM; in test [1] it was 100 to 500 nM; in test [2] it was less than 100 nM; in test [3], less than 50 nM; with PC3 cells, less than 100 nM; in test [4], less than 100 nM.

In the case of `CN(C)C(=O)c1ccc(NC(=O)Nc2ccc(-c3nc(N4CCOCC4)c4ccc(-c5cccc(S(C)(=O)=O)c5)cc4n3)cc2F)cc1` [Example 118, 4-(3-(2-fluoro-4-(7-(3-(methylsulfonyl)phenyl)-4-morpholino-quinazolin-2-yl)phenyl)ureido)-N,N-dimethyl-benzamide], the IC50 is less than 50 nM at mTOR kinase; 201 to 10000 nM in test [2]; less than 50 nM in test [3]; 201 to 10000 nM in the test with PC3 cells; 501 to 5000 nM in test [4].

Regarding `CN(C)C(=O)c1ccc(NC(=O)Nc2ccc(-c3nc(N4CCOCC4)c4ccc(-c5ccco5)cc4n3)cc2)c(F)c1` [Example 160, 3-fluoro-4-(3-(4-(7-(furan-2-yl)-4-morpholino-quinazolin-2-yl)phenyl)ureido)-N,N-dimethyl-benzamide], the IC50 is 50 to 200 nM on mTOR kinase, less than 50 nM in test [3], less than 100 nM in the test on PC3 cells and 501 to 5000 nM in test [4].

With `CN(C)C(=O)c1ccc(NC(=O)Nc2ccc(-c3nc(N4CCOCC4)c4ccc(-c5ccccn5)cc4n3)cc2)cc1F` [Example 267, 2-fluoro-N,N-dimethyl-4-(3-(4-(4-morpholino-7-(pyridin-2-yl)quinazolin-2-yl)phenyl)ureido)-benzamide], the IC50 was less than 50 nM on mTOR kinase, less than 50 nM in test [3], 201 to 10000 nM with PC3 cells and 501 to 5000 nM in test [4].

Take `CN(C)C(=O)c1ccc(NC(=O)Nc2ccc(-c3nc(N4CCOCC4)c4ccc(-c5ccccn5)cc4n3)c(F)c2)cc1` [Example 268, 4-(3-(3-fluoro-4-(4-morpholino-7-(pyridin-2-yl)quinazolin-2-yl)phenyl)ureido)-N,N-dimethyl-benzamide]: the IC50 was less than 50 nM at mTOR kinase, less than 50 nM in test [3], 201 to 10000 nM with PC3 cells and 501 to 5000 nM in test [4].

Consider `CC(=O)Nc1ccc(NC(=O)Nc2ccc(-c3nc(N4CCOCC4)c4ccc(-c5cncnc5)cc4n3)cc2)cc1` [Example 291, N-(4-(3-(4-(4-morpholino-7-(pyrimidin-5-yl)quinazolin-2-yl)phenyl)ureido)phenyl)-acetamide], for which the IC50 is less than 50 nM at mTOR kinase; 501 to 5000 nM in test [1]; 100 to 500 nM in test [2]; less than 50 nM in test [3]; 100 to 500 nM with PC3 cells.
